Source: BindingDB's records for doi:10.1124/mol.62.4.947 (National Cancer Institute-Bethesda, 2002)

Target: Transient receptor potential cation channel subfamily V member 1 (Rattus norvegicus, UniProt O35433)
Sequence (O35433 whole entry): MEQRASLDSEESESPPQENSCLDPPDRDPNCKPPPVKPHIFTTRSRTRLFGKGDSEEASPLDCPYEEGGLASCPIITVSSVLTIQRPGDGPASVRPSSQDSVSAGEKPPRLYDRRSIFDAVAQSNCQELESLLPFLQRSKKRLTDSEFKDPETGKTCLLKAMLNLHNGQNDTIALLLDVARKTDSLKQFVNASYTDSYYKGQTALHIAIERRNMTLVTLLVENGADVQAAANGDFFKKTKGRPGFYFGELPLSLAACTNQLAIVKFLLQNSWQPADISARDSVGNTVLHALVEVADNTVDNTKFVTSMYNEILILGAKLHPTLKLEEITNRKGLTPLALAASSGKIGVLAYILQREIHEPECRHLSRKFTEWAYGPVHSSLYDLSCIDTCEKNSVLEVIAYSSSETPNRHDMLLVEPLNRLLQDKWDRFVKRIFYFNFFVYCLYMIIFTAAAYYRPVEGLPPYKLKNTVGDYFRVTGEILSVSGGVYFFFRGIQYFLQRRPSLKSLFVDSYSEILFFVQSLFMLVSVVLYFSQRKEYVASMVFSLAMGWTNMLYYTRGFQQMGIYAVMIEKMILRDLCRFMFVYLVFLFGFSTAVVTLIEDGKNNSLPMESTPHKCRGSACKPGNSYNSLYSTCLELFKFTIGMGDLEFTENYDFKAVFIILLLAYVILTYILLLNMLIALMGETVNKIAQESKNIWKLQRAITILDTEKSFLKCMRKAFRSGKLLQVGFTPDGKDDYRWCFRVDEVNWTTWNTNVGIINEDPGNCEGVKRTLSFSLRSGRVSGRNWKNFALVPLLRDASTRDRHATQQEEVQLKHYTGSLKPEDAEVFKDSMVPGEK

CC(C)(C)c1ccc(CNC(=S)NCc2ccc(NS(C)(=O)=O)c(F)c2)cc1 [JYL1421]
Ki: 9.2 nM
